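Tested at 5 concentrations; 48 h exposure; 96-well plates; endpoints linearly interpolated, else capped at highest concentration. TGI: concentration producing complete growth inhibition.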
Columns and labels:
Test in all cases: growth of human tumour cells (NCI), 48 h
786-0 renal = test system: 786-0 renal
A498 renal = test system: A498 renal
A549 NSCLC = test system: A549 NSCLC
ACHN renal = test system: ACHN renal
CAKI-1 renal = test system: CAKI-1 renal
CCRF-CEM leukemia = test system: CCRF-CEM leukemia
COLO 205 colon = test system: COLO 205 colon
DLD-1 colon = test system: DLD-1 colon
DMS 114 small cell lung = test system: DMS 114 small cell lung
EKVX NSCLC = test system: EKVX NSCLC
HCC-2998 colon = test system: HCC-2998 colon
HCT-15 colon = test system: HCT-15 colon
HL-60(TB) leukemia = test system: HL-60(TB) leukemia
HOP-62 NSCLC = test system: HOP-62 NSCLC
HOP-92 NSCLC = test system: HOP-92 NSCLC
HT29 colon = test system: HT29 colon
IGROV1 ovarian = test system: IGROV1 ovarian
K-562 leukemia = test system: K-562 leukemia
KM12 colon = test system: KM12 colon
KM20L2 colon = test system: KM20L2 colon
LOX IMVI melanoma = test system: LOX IMVI melanoma
LXFL 529 NSCLC = test system: LXFL 529 NSCLC
M14 melanoma = test system: M14 melanoma
M19-MEL melanoma = test system: M19-MEL melanoma
MALME-3M melanoma = test system: MALME-3M melanoma
MOLT-4 leukemia = test system: MOLT-4 leukemia
NCI-H226 lung = test system: NCI-H226 lung
NCI-H23 lung = test system: NCI-H23 lung
NCI-H460 lung = test system: NCI-H460 lung
NCI-H522 lung = test system: NCI-H522 lung
OVCAR-3 ovarian = test system: OVCAR-3 ovarian
OVCAR-4 ovarian = test system: OVCAR-4 ovarian
OVCAR-5 ovarian = test system: OVCAR-5 ovarian
OVCAR-8 ovarian = test system: OVCAR-8 ovarian
RPMI-8226 leukemia = test system: RPMI-8226 leukemia
RXF 393 renal = test system: RXF 393 renal
RXF-631 renal = test system: RXF-631 renal
SF-268 CNS = test system: SF-268 CNS
SF-295 CNS = test system: SF-295 CNS
SF-539 CNS = test system: SF-539 CNS
SK-MEL-2 melanoma = test system: SK-MEL-2 melanoma
SK-MEL-28 melanoma = test system: SK-MEL-28 melanoma
SK-MEL-5 melanoma = test system: SK-MEL-5 melanoma
SK-OV-3 ovarian = test system: SK-OV-3 ovarian
SN12C renal = test system: SN12C renal
SNB-75 CNS = test system: SNB-75 CNS
SNB-78 CNS = test system: SNB-78 CNS
SW-620 colon = test system: SW-620 colon
TK-10 renal = test system: TK-10 renal
U251 CNS = test system: U251 CNS
UACC-257 melanoma = test system: UACC-257 melanoma
UACC-62 melanoma = test system: UACC-62 melanoma
UO-31 renal = test system: UO-31 renal
XF 498 CNS = test system: XF 498 CNS
DMS 273 small cell lung = test system: DMS 273 small cell lung
HCT-116 colon = test system: HCT-116 colon
HOP-18 NSCLC = test system: HOP-18 NSCLC
SNB-19 CNS = test system: SNB-19 CNS
SR leukemia = test system: SR leukemia

In the case of `O=C1CCC2(c3ccccc3)Nc3cc(Cl)ccc3N12` (stereo not drawn), the TGI (786-0 renal) is reported as > 100 µM, the TGI (A498 renal) is reported as 98.7 µM and the TGI (A549 NSCLC) is reported as > 100 µM. The TGI (ACHN renal) was 96.1 µM, the TGI (CAKI-1 renal) was 87.1 µM and the TGI (CCRF-CEM leukemia) was 75.2 µM. For the same compound, the TGI (COLO 205 colon) was 31.6 µM, the TGI (DLD-1 colon) was > 100 µM and the TGI (DMS 114 small cell lung) was 57.3 µM. The TGI (EKVX NSCLC) was > 100 µM, the TGI (HCC-2998 colon) was > 100 µM and the TGI (HCT-15 colon) was > 100 µM. For the same compound, the TGI (HL-60(TB) leukemia) was 48.1 µM, the TGI (HOP-62 NSCLC) was > 100 µM and the TGI (HOP-92 NSCLC) was 40.7 µM. The TGI (HT29 colon) was > 100 µM, the TGI (IGROV1 ovarian) was > 100 µM and the TGI (K-562 leukemia) was > 100 µM. The TGI (KM12 colon) was > 100 µM, the TGI (KM20L2 colon) was > 100 µM and the TGI (LOX IMVI melanoma) was > 100 µM. The TGI (LXFL 529 NSCLC) was > 100 µM, the TGI (M14 melanoma) was > 100 µM and the TGI (M19-MEL melanoma) was 82.6 µM. For the same compound, the TGI (MALME-3M melanoma) was 75.5 µM, the TGI (MOLT-4 leukemia) was 57.9 µM and the TGI (NCI-H226 lung) was 65.1 µM. The TGI (NCI-H23 lung) was 60.7 µM, the TGI (NCI-H460 lung) was > 100 µM and the TGI (NCI-H522 lung) was > 100 µM. The TGI (OVCAR-3 ovarian) was 62.8 µM, the TGI (OVCAR-4 ovarian) was > 100 µM and the TGI (OVCAR-5 ovarian) was > 100 µM. For the same compound, the TGI (OVCAR-8 ovarian) was > 100 µM, the TGI (RPMI-8226 leukemia) was 58.6 µM and the TGI (RXF 393 renal) was > 100 µM. For the same compound, the TGI (RXF-631 renal) was > 100 µM, the TGI (SF-268 CNS) was > 100 µM and the TGI (SF-295 CNS) was 96 µM. The TGI (SF-539 CNS) was > 100 µM, the TGI (SK-MEL-2 melanoma) was 53.5 µM and the TGI (SK-MEL-28 melanoma) was > 100 µM. For the same compound, the TGI (SK-MEL-5 melanoma) was 32.4 µM, the TGI (SK-OV-3 ovarian) was 85.1 µM and the TGI (SN12C renal) was > 100 µM. The TGI (SNB-75 CNS) was 64.9 µM, the TGI (SNB-78 CNS) was > 100 µM and the TGI (SW-620 colon) was > 100 µM. The TGI (TK-10 renal) was > 100 µM, the TGI (U251 CNS) was > 100 µM and the TGI (UACC-257 melanoma) was 71.5 µM. The TGI (UACC-62 melanoma) was 56.4 µM, the TGI (UO-31 renal) was 63.3 µM and the TGI (XF 498 CNS) was 56.6 µM.
For `C=C(N=[N+]=[N-])c1cn(C2CC(O)C(CO)O2)c(=O)[nH]c1=O` (stereo not drawn), the TGI (786-0 renal) was > 100 µM, the TGI (A549 NSCLC) was > 100 µM and the TGI (ACHN renal) was > 100 µM. The TGI (CAKI-1 renal) was > 100 µM, the TGI (CCRF-CEM leukemia) was > 100 µM and the TGI (COLO 205 colon) was > 100 µM. The TGI (DLD-1 colon) was > 100 µM, the TGI (DMS 114 small cell lung) was > 100 µM and the TGI (DMS 273 small cell lung) was > 100 µM. The TGI (EKVX NSCLC) was > 100 µM, the TGI (HCC-2998 colon) was > 100 µM and the TGI (HCT-116 colon) was > 100 µM. For the same compound, the TGI (HCT-15 colon) was > 100 µM, the TGI (HL-60(TB) leukemia) was > 100 µM and the TGI (HOP-18 NSCLC) was > 100 µM. For the same compound, the TGI (HOP-62 NSCLC) was > 100 µM, the TGI (HOP-92 NSCLC) was > 100 µM and the TGI (HT29 colon) was > 100 µM. The TGI (IGROV1 ovarian) was > 100 µM, the TGI (K-562 leukemia) was > 100 µM and the TGI (KM12 colon) was > 100 µM. The TGI (KM20L2 colon) was > 100 µM, the TGI (LOX IMVI melanoma) was > 100 µM and the TGI (LXFL 529 NSCLC) was > 100 µM. For the same compound, the TGI (M14 melanoma) was > 100 µM, the TGI (M19-MEL melanoma) was > 100 µM and the TGI (MALME-3M melanoma) was > 100 µM. For the same compound, the TGI (MOLT-4 leukemia) was > 100 µM, the TGI (NCI-H226 lung) was > 100 µM and the TGI (NCI-H23 lung) was > 100 µM. For the same compound, the TGI (NCI-H460 lung) was > 100 µM, the TGI (NCI-H522 lung) was > 100 µM and the TGI (OVCAR-3 ovarian) was > 100 µM. For the same compound, the TGI (OVCAR-5 ovarian) was > 100 µM, the TGI (OVCAR-8 ovarian) was > 100 µM and the TGI (RPMI-8226 leukemia) was > 100 µM. For the same compound, the TGI (RXF 393 renal) was > 100 µM, the TGI (SF-295 CNS) was > 100 µM and the TGI (SF-539 CNS) was > 100 µM. For the same compound, the TGI (SK-MEL-2 melanoma) was > 100 µM, the TGI (SK-MEL-28 melanoma) was > 100 µM and the TGI (SK-MEL-5 melanoma) was > 100 µM. The TGI (SK-OV-3 ovarian) was > 100 µM, the TGI (SN12C renal) was > 100 µM and the TGI (SNB-19 CNS) was > 100 µM. The TGI (SNB-75 CNS) was > 100 µM, the TGI (SNB-78 CNS) was > 100 µM and the TGI (SR leukemia) was > 100 µM. For the same compound, the TGI (SW-620 colon) was > 100 µM, the TGI (TK-10 renal) was > 100 µM and the TGI (U251 CNS) was > 100 µM. For the same compound, the TGI (UACC-62 melanoma) was > 100 µM, the TGI (UO-31 renal) was > 100 µM and the TGI (XF 498 CNS) was > 100 µM.

From PubChem BioAssay (NCI)
